Test results from ChEMBL document CHEMBL1201862, “PubChem BioAssay data set” (2004).
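Protocol summary: plate cells (96-well), add compound at 5 concentrations, incubate 48 h, interpolate endpoints linearly. Abbreviation: GI50, concentration required for 50% inhibition of growth.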 Active and inactive are the calls of the source. Cut-off read from the data, not from the text of the source: active = GI50 up to about 1.1 µM and inactive = higher.

Assays:
Assay in all cases: NCI tumour cell line growth inhibition, 48 h
[1] = system: BT-549
[2] = system: EKVX
[3] = system: M14
[4] = system: K562
[5] = system: HOP-92
[6] = system: UO-31
[7] = system: UACC-62
[8] = system: SF-539
[9] = system: HOP-62
[10] = system: NCI-H460
[11] = system: OVCAR-4
[12] = system: OVCAR-5
[13] = system: SNB-19
[14] = system: KM12
[15] = system: SW-620
[16] = system: 786-0
[17] = system: NCI-H226
[18] = system: A498
[19] = system: SK-MEL-2

Structure (SMILES) | GI50 [1] | GI50 [2] | GI50 [3] | GI50 [4] | GI50 [5] | GI50 [6] | GI50 [7] | GI50 [8] | GI50 [9] | GI50 [10] | GI50 [11] | GI50 [12] | GI50 [13] | GI50 [14] | GI50 [15] | GI50 [16] | GI50 [17] | GI50 [18] | GI50 [19]
N#Cc1cc(-c2nc3c(F)cccc3s2)ccc1N | > 100 µM (inactive) | < 0.01 µM (active) | > 100 µM (inactive) | > 100 µM (inactive) | 3.52 µM (inactive) | > 100 µM (inactive) | > 100 µM (inactive) | > 100 µM (inactive) | > 100 µM (inactive) | 20.5 µM (inactive) | > 100 µM (inactive) | > 100 µM (inactive) | > 100 µM (inactive) | 65.3 µM (inactive) | > 100 µM (inactive) | > 100 µM (inactive) | > 100 µM (inactive) | > 100 µM (inactive) | –
Cc1c(/C=N/NC(=S)Nc2ccccc2Cl)c(=O)n(-c2ccccc2)n1C | 54.2 µM (inactive) | 45.5 µM (inactive) | 60.3 µM (inactive) | 27.9 µM (inactive) | – | 15.1 µM (inactive) | 31 µM (inactive) | 30.1 µM (inactive) | 22.7 µM (inactive) | 25.4 µM (inactive) | 42.4 µM (inactive) | > 100 µM (inactive) | 32.6 µM (inactive) | 29.3 µM (inactive) | 39.9 µM (inactive) | 19.9 µM (inactive) | 68.5 µM (inactive) | 30.4 µM (inactive) | > 100 µM (inactive)
Cc1c(C)c2c(c(N)c1C#N)C(=O)N(Nc1ccccc1)C2=O | > 100 µM (inactive) | 43.9 µM (inactive) | > 100 µM (inactive) | > 100 µM (inactive) | 28.5 µM (inactive) | 78.5 µM (inactive) | 51.4 µM (inactive) | 40.1 µM (inactive) | – | 60.8 µM (inactive) | 33.4 µM (inactive) | > 100 µM (inactive) | 39.1 µM (inactive) | 36.1 µM (inactive) | > 100 µM (inactive) | 51.9 µM (inactive) | 61.2 µM (inactive) | – | 96.8 µM (inactive)
NC(CCC(=O)O)C(=O)N1CCN(c2nc(N3CCCC3)c3nc(Cl)c(NCc4ccccc4)nc3n2)CC1 (stereo not given) | 12.1 µM (inactive) | 13.8 µM (inactive) | 10 µM (inactive) | 12.7 µM (inactive) | 15.8 µM (inactive) | 9.29 µM (inactive) | 11.2 µM (inactive) | 13.2 µM (inactive) | 13.2 µM (inactive) | 10.3 µM (inactive) | 10.5 µM (inactive) | 18.7 µM (inactive) | 17.5 µM (inactive) | 16.1 µM (inactive) | 18.2 µM (inactive) | 12.1 µM (inactive) | 12.3 µM (inactive) | – | 15.6 µM (inactive)
OC1(C2(c3ccc(Cl)cc3)CCCC2)c2ccccc2C2=NCCN21 (stereo not given) | 16.8 µM (inactive) | 16.9 µM (inactive) | 14.2 µM (inactive) | 4.81 µM (inactive) | 13.4 µM (inactive) | 11.7 µM (inactive) | 16.1 µM (inactive) | – | 17.4 µM (inactive) | 14.3 µM (inactive) | 12.9 µM (inactive) | 15.8 µM (inactive) | 16.4 µM (inactive) | 18.1 µM (inactive) | 22.8 µM (inactive) | 14.3 µM (inactive) | 17.1 µM (inactive) | 15.7 µM (inactive) | –
O=C(/C=C/c1ccccc1)/C=N/N1C(=S)N(c2ccccc2)C(=N\c2ccccc2)/C1=N/c1ccccc1 | > 100 µM (inactive) | > 100 µM (inactive) | > 100 µM (inactive) | > 100 µM (inactive) | > 100 µM (inactive) | > 100 µM (inactive) | > 100 µM (inactive) | > 100 µM (inactive) | > 100 µM (inactive) | 58.7 µM (inactive) | – | > 100 µM (inactive) | > 100 µM (inactive) | > 100 µM (inactive) | > 100 µM (inactive) | > 100 µM (inactive) | > 100 µM (inactive) | – | > 100 µM (inactive)
CCCc1cc(=O)oc2c3c(c4c(c12)OC(C)(C)CC4)O[C@H](C)[C@@H](C)[C@H]3O | 13.4 µM (inactive) | 12.6 µM (inactive) | 16.1 µM (inactive) | 2.52 µM (inactive) | 18.3 µM (inactive) | 13.8 µM (inactive) | 14.1 µM (inactive) | 21.4 µM (inactive) | 16.6 µM (inactive) | 19 µM (inactive) | 14.2 µM (inactive) | 16.7 µM (inactive) | 16.6 µM (inactive) | 12.8 µM (inactive) | 17 µM (inactive) | 15.7 µM (inactive) | 15.6 µM (inactive) | – | 24.7 µM (inactive)
CCOC(CN(C)C(=O)OCC(Cl)(Cl)Cl)OCC | 82.8 µM (inactive) | > 100 µM (inactive) | 69 µM (inactive) | 39.9 µM (inactive) | 33.9 µM (inactive) | 27.6 µM (inactive) | > 100 µM (inactive) | > 100 µM (inactive) | > 100 µM (inactive) | 61.5 µM (inactive) | 77.1 µM (inactive) | > 100 µM (inactive) | > 100 µM (inactive) | > 100 µM (inactive) | > 100 µM (inactive) | > 100 µM (inactive) | 54.6 µM (inactive) | – | –
S=C(Nc1ccccc1)N(/N=C/C=C/c1ccccc1)c1nnc(-c2ccccc2)c(-c2ccccc2)n1 | – | 45.4 µM (inactive) | 63.4 µM (inactive) | 36.6 µM (inactive) | 18.7 µM (inactive) | 24.7 µM (inactive) | 52.4 µM (inactive) | 35.7 µM (inactive) | 78.2 µM (inactive) | 67.5 µM (inactive) | 30.5 µM (inactive) | > 100 µM (inactive) | > 100 µM (inactive) | 82.4 µM (inactive) | > 100 µM (inactive) | > 100 µM (inactive) | 24.3 µM (inactive) | 67.5 µM (inactive) | 56.8 µM (inactive)
Cc1nc(C)c(N2CCN(C(=O)O)CC2)c(O)n1 | > 100 µM (inactive) | > 100 µM (inactive) | > 100 µM (inactive) | > 100 µM (inactive) | > 100 µM (inactive) | > 100 µM (inactive) | > 100 µM (inactive) | > 100 µM (inactive) | > 100 µM (inactive) | > 100 µM (inactive) | > 100 µM (inactive) | – | > 100 µM (inactive) | > 100 µM (inactive) | > 100 µM (inactive) | > 100 µM (inactive) | > 100 µM (inactive) | > 100 µM (inactive) | –
Cc1cccc(/C=N/NC(=S)NC(C)(C)C)n1 | > 100 µM (inactive) | – | 88.7 µM (inactive) | 5.15 µM (inactive) | – | 62.4 µM (inactive) | 66.4 µM (inactive) | > 100 µM (inactive) | 98.9 µM (inactive) | 85.1 µM (inactive) | 62.7 µM (inactive) | 95.1 µM (inactive) | > 100 µM (inactive) | > 100 µM (inactive) | 16 µM (inactive) | 76.9 µM (inactive) | 52.4 µM (inactive) | > 100 µM (inactive) | > 100 µM (inactive)
Cc1ccc(/C=C2/NC(=S)SC2=O)cc1 | 22.6 µM (inactive) | 28.4 µM (inactive) | 33 µM (inactive) | – | 43.8 µM (inactive) | 24.5 µM (inactive) | – | 30 µM (inactive) | 51.6 µM (inactive) | 22.4 µM (inactive) | 28.9 µM (inactive) | 40.8 µM (inactive) | 29.5 µM (inactive) | 33.3 µM (inactive) | 54.2 µM (inactive) | 34.6 µM (inactive) | 25.7 µM (inactive) | – | 36.9 µM (inactive)
ClC(Cl)(Cl)C1CCOC1n1nnc2ccccc21 (stereo not given) | 25.9 µM (inactive) | > 100 µM (inactive) | > 100 µM (inactive) | 24.1 µM (inactive) | – | – | > 100 µM (inactive) | > 100 µM (inactive) | > 100 µM (inactive) | – | – | > 100 µM (inactive) | – | – | – | > 100 µM (inactive) | > 100 µM (inactive) | > 100 µM (inactive) | > 100 µM (inactive)
S=c1c2cn[nH]c2nc2scc(-c3ccc(Cl)cc3)n12 | 10.5 µM (inactive) | 17.3 µM (inactive) | 17 µM (inactive) | 10.9 µM (inactive) | – | 6.24 µM (inactive) | 16.3 µM (inactive) | 17.7 µM (inactive) | 16.9 µM (inactive) | 20.6 µM (inactive) | 43.1 µM (inactive) | 14.3 µM (inactive) | 23.6 µM (inactive) | 11.1 µM (inactive) | 9.04 µM (inactive) | 14.1 µM (inactive) | – | – | 18.2 µM (inactive)
COc1ccc(C2SC(C)C(=O)N2c2nc(-c3nc(-c4ccc(Cl)cc4)cs3)cs2)cc1 (stereo not given) | > 100 µM (inactive) | > 100 µM (inactive) | > 100 µM (inactive) | > 100 µM (inactive) | > 100 µM (inactive) | > 100 µM (inactive) | > 100 µM (inactive) | > 100 µM (inactive) | > 100 µM (inactive) | > 100 µM (inactive) | > 100 µM (inactive) | > 100 µM (inactive) | > 100 µM (inactive) | > 100 µM (inactive) | > 100 µM (inactive) | > 100 µM (inactive) | > 100 µM (inactive) | – | –
CC1CC[C@@]2(OC1)OC1CC3C4CCC5C[C@@H](OC6OC(CO)C(OC7OC(CO)C(O)C(OC8OC(CO)C(O)C(OC9OC(CO)C(O)C(O)C9O)C8O)C7OC7OC(CO)C(O)C(O)C7O)C(O)C6O)[C@H](O)C[C@]5(C)C4CC[C@]3(C)C1[C@@H]2C (stereo not given in full) | > 80.5 µM (inactive) | > 80.5 µM (inactive) | > 80.5 µM (inactive) | > 80.5 µM (inactive) | > 80.5 µM (inactive) | – | > 80.5 µM (inactive) | > 80.5 µM (inactive) | > 80.5 µM (inactive) | > 80.5 µM (inactive) | > 80.5 µM (inactive) | > 80.5 µM (inactive) | > 80.5 µM (inactive) | > 80.5 µM (inactive) | > 80.5 µM (inactive) | > 80.5 µM (inactive) | > 80.5 µM (inactive) | > 80.5 µM (inactive) | –
